Experimental data reported in the supplement of paper PMC10307832.

How the values were obtained:
Experiment in all cases: relative viability (nuclei count vs DMSO), 5 days (fraction); higher = more cells survive
Vemurafenib + Dasatinib = compound: CCCS(=O)(=O)Nc1ccc(F)c(C(=O)c2c[nH]c3ncc(-c4ccc(Cl)cc4)cc23)c1F [Vemurafenib] + Cc1nc(Nc2ncc(C(=O)Nc3c(C)cccc3Cl)s2)cc(N2CCN(CCO)CC2)n1 [Dasatinib] (partner 0.075 µM)
Procedure, shortened: (§1)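 Relative viability was taken as the ratio of nuclei in treated wells to nuclei in vehicle wells. Lung cancer cell lines in 1536-well plates received compounds by pin tool one day after seeding, either one drug alone or a fixed anchor-drug dose plus five library-drug doses (not always all listed) in √10 steps. Nuclei were counted on 4× images after 5 days of treatment, and values are medians of duplicate plates.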

OSI-027 + Trametinib = compound: COc1cccc2cc(-c3nc([C@H]4CC[C@H](C(=O)O)CC4)n4ncnc(N)c34)[nH]c12 [OSI-027] + CC(=O)Nc1cccc(-n2c(=O)n(C3CC3)c(=O)c3c(Nc4ccc(I)cc4F)n(C)c(=O)c(C)c32)c1 [Trametinib] (partner 0.02 µM)
Procedure, shortened: as §1

Alpelisib + Vorinostat = compound: Cc1nc(NC(=O)N2CCC[C@H]2C(N)=O)sc1-c1ccnc(C(C)(C)C(F)(F)F)c1 [Alpelisib] + O=C(CCCCCCC(=O)Nc1ccccc1)NO [Vorinostat] (partner 1 µM)
Procedure, shortened: as §1

OSI-027 + Navitoclax = compound: COc1cccc2cc(-c3nc([C@H]4CC[C@H](C(=O)O)CC4)n4ncnc(N)c34)[nH]c12 [OSI-027] + CC1(C)CCC(c2ccc(Cl)cc2)=C(CN2CCN(c3ccc(C(=O)NS(=O)(=O)c4ccc(N[C@H](CCN5CCOCC5)CSc5ccccc5)c(S(=O)(=O)C(F)(F)F)c4)cc3)CC2)C1 [Navitoclax] (partner 0.5 µM)
Procedure, shortened: as §1

Row | Cell Line | relative viability (Vemurafenib + Dasatinib; first compound 0.03162 µM) | relative viability (Vemurafenib + Dasatinib; first compound 0.3162 µM) | relative viability (Vemurafenib + Dasatinib; first compound 1 µM) | relative viability (OSI-027 + Trametinib; first compound 0.01 µM) | relative viability (OSI-027 + Trametinib; first compound 0.03162 µM) | relative viability (OSI-027 + Trametinib; first compound 0.1 µM) | relative viability (OSI-027 + Trametinib; first compound 0.3162 µM) | relative viability (OSI-027 + Trametinib; first compound 1 µM) | relative viability (Alpelisib + Vorinostat; first compound 0.04 µM) | relative viability (Alpelisib + Vorinostat; first compound 0.1265 µM) | relative viability (Alpelisib + Vorinostat; first compound 0.4 µM) | relative viability (Alpelisib + Vorinostat; first compound 1.265 µM) | relative viability (Alpelisib + Vorinostat; first compound 4 µM) | relative viability (OSI-027 + Navitoclax; first compound 0.01 µM) | relative viability (OSI-027 + Navitoclax; first compound 0.03162 µM) | relative viability (OSI-027 + Navitoclax; first compound 0.1 µM) | relative viability (OSI-027 + Navitoclax; first compound 0.3162 µM) | relative viability (OSI-027 + Navitoclax; first compound 1 µM) | relative viability (Vemurafenib + Dasatinib; first compound 0.1 µM)
1 | PC-14 | 0.229 | 0.228 | 0.267 | 0.793 | 0.934 | 0.71 | 0.649 | 0.282 | 0.771 | 0.681 | 0.717 | 0.432 | 0.624 | 1.02 | 0.998 | 1.05 | 1.05 | 0.939 | –
2 | H3255 | 0.36 | 0.446 | 0.371 | 0.527 | 0.594 | 0.514 | 0.476 | 0.414 | 0.778 | 0.733 | 0.826 | 0.613 | 0.496 | 0.411 | 0.483 | 0.442 | 0.428 | 0.227 | –
3 | NCI-H2170 | 0.523 | 0.639 | 0.54 | 1.02 | 0.901 | 0.807 | 0.746 | 0.267 | 0.731 | 0.663 | 0.914 | 0.551 | 0.484 | 0.651 | 0.565 | 0.471 | 0.535 | 0.221 | 0.214
4 | HCC-366 | 0.576 | 0.265 | 0.564 | 0.333 | 0.433 | 0.454 | 0.282 | 0.195 | 0.429 | 0.356 | 0.353 | 0.208 | 0.156 | 1.05 | 1.14 | 1.06 | 1.05 | 0.287 | 0.643
5 | EKVX | 0.51 | 0.661 | 0.515 | 0.413 | 0.359 | 0.3 | 0.293 | 0.313 | 0.584 | 0.657 | 0.928 | 0.597 | 0.456 | 0.954 | 0.873 | 1.01 | 0.807 | 0.44 | –
6 | NCI-H1734 | 0.436 | 0.357 | 0.432 | 0.667 | 0.687 | 0.659 | 0.586 | 0.42 | 0.726 | 0.686 | 0.822 | 0.642 | 0.375 | 0.749 | 0.836 | 0.785 | 0.746 | 0.384 | 0.474
7 | CAL-12T | 0.42 | 0.454 | 0.374 | 0.315 | 0.334 | 0.336 | 0.235 | 0.242 | 0.755 | 0.783 | 0.948 | 0.468 | 0.64 | 1.36 | 1.18 | 1.3 | 1.08 | 0.5 | 0.266
8 | NCI-H2347 | 0.346 | 0.692 | 0.346 | 0.29 | 0.25 | 0.268 | 0.278 | 0.205 | 0.524 | 0.598 | 0.766 | 0.555 | 0.49 | 0.916 | 0.764 | 0.609 | 0.626 | 0.333 | 0.311
9 | SK-MES-1 | 0.372 | 0.303 | 0.389 | 0.531 | 0.523 | 0.478 | 0.483 | 0.394 | 1.13 | 1.09 | 1.15 | 0.828 | 0.833 | 1.27 | 1.23 | 1.17 | 0.974 | 0.484 | 0.155
10 | NCI-H3122 | 0.652 | 0.841 | 0.712 | 0.273 | 0.238 | 0.178 | 0.191 | 0.097 | 0.783 | 0.985 | 1.28 | 1.01 | 0.491 | 1.03 | 1.14 | 1.13 | 1.03 | 0.334 | 0.598
11 | NCI-H23 | 0.754 | 0.737 | 0.434 | 0.313 | 0.42 | 0.349 | 0.26 | 0.28 | 0.634 | 0.441 | 0.411 | 0.414 | 0.332 | 0.666 | 0.955 | 0.808 | 0.604 | 0.319 | 0.77
12 | NCI-H2228 | 0.399 | 0.54 | 0.502 | 0.409 | 0.499 | 0.507 | 0.326 | 0.284 | 0.714 | 0.48 | 0.401 | 0.566 | 0.413 | 0.978 | 1.34 | 0.81 | – | 0.303 | 0.474
13 | HCC-15 | 0.551 | – | 0.726 | 0.317 | 0.365 | 0.352 | 0.283 | 0.238 | 0.913 | 0.863 | 0.908 | 0.598 | 0.704 | 0.713 | 0.689 | 0.676 | 0.611 | 0.374 | 0.67
14 | COR-L23 | 0.423 | 0.443 | 0.482 | 0.571 | 0.639 | 0.525 | 0.485 | 0.254 | 0.438 | 0.474 | 0.398 | 0.283 | 0.272 | 0.988 | 0.782 | 0.938 | 0.923 | 0.36 | 0.503
